What all share (test): NCI-60 cell line screen, 48 h
For assay [1], the system named is HOP-92.
In assay [2] the test system is K562.
Assay [3] concerns CAKI-1.
Assay [4] deals with KM12.
The subject of assay [5] is RXF 393.
For assay [6], the system named is HT-29.
For assay [7], the system named is SK-OV-3.
Assay [8] has as its system TK-10.
In assay [9] the test system is XF498.
The test system of assay [10] is SR.
The subject of assay [11] is Hs-578T.
Assay [12] deals with MCF7.
The subject of assay [13] is T47D.
For assay [14], the system named is PC-3.
In assay [15] the test system is MDA-MB-435.
Assay [16] has as its system NCI/ADR-RES.
In assay [17] the test system is DU-145.
The subject of assay [18] is MDA-MB-231.
In assay [19] the test system is BT-549.
Assay [20] has as its system MDA-N.

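The compound was tested at five concentrations on cells cultured in 96-well plates, with a 48-hour exposure period. The concentration for 50% growth inhibition is given as GI50.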 Activity calls are given as the source filed them. No stated cut-off is given here; in the data, active = GI50 up to about 1.1 µM and inactive = higher. Where only a bound is given, the exact number is not on record here.

In the case of `CN=S(=O)(C[C@]1(O)CC2OC1C1OC(C)(C)OC21)c1ccccc1` (stereo partly specified), the GI50 in assay [1], in assay [2], in [3], in assay [4], in assay [5] and in assay [6] was > 100 µM (inactive) throughout. The GI50 in assay [7], in assay [8] and in assay [9] was > 100 µM (inactive) each time.
Take `CCOC(=O)c1c(-c2ccccc2)c(C(OC(c2ccccc2)c2c(-c3ccccc3)c(C(=O)OCC)n3ccccc23)c2ccccc2)c2ccccn12` (stereo unspecified): the GI50 in assay [2], in [3], in [4], in assay [5], in assay [6] and in assay [10] was > 100 µM (inactive) each time. Moreover, the GI50 in assay [7], in assay [8] and in assay [9] was > 100 µM (inactive) in each case.
On to `Cc1ccc(-c2nnc3s/c(=C\c4ccc(N(C)C)cc4)c(=O)n23)cc1`, for which the GI50 in assay [1] is > 100 µM (inactive); in [2] it was > 10 µM (inactive); in [3], > 100 µM (inactive); in assay [4], > 100 µM (inactive); in assay [5] it was > 100 µM (inactive); in assay [7] it was > 100 µM (inactive). Also, the GI50 in [8] and in assay [9] was > 100 µM (inactive) each time.
As to `CC1(C)OCC[C@@H]1[Si](C)(C)C`, the GI50 in assay [1] was 55.8 µM (inactive); in [2] it was 21.4 µM (inactive); in assay [4] it was > 100 µM (inactive); in [5], 16.5 µM (inactive); in assay [6], > 100 µM (inactive); in assay [7], > 100 µM (inactive). In addition, the GI50 is 73.5 µM (inactive) in assay [8] and 32.8 µM (inactive) in [9].
For `COc1ccc(CCC2NCCc3cc(OC)c(OC)cc32)cc1` (stereo unspecified), the GI50 in assay [2], in assay [3], in [4], in assay [6], in assay [8] and in assay [9] was > 100 µM (inactive) in each case.
Turning to `CC#C[C@@]1(O)CCCC[C@@H]1O`, the GI50 in assay [1], in assay [2], in assay [4], in assay [5], in [6] and in [7] was > 100 µM (inactive) each time. The GI50 in assay [8] and in [9] was > 100 µM (inactive) in each case.
On to `O=c1oc2ccccc2cc1-c1cn2cc(Cl)ccc2n1`, for which the GI50 in assay [11] was 1.23 µM (inactive); in [1], 5.45 µM (inactive); in assay [12], 0.435 µM (active); in assay [13], 11 µM (inactive); in [2], 0.495 µM (active); in assay [14] it was 1.93 µM (inactive). For the same compound, the GI50 in assay [3] is 0.422 µM (active); in assay [15], 0.0434 µM (active); in assay [16] it was 0.345 µM (active); in [4], 0.296 µM (active); in assay [5], 2.28 µM (inactive); in assay [17], 5.57 µM (inactive). Moreover, the GI50 in assay [18] was 3.01 µM (inactive); in assay [19], 2.33 µM (inactive); in [6] it was 7.11 µM (inactive); in assay [10], 0.0687 µM (active); in [7], 0.773 µM (active); in [8] it was 7.53 µM (inactive). The GI50 in [20] is 0.0881 µM (active).
Regarding `CSC1=Nc2ccccc2N(C)c2c1c(-c1ccccc1)nn2C`, the GI50 was 68.9 µM (inactive) in assay [11]; 29.5 µM (inactive) in assay [1]; 23.8 µM (inactive) in assay [12]; 9.79 µM (inactive) in assay [13]; 17.8 µM (inactive) in [2]; 35.1 µM (inactive) in assay [14]. The GI50 in assay [3] was > 100 µM (inactive); in [15], 28.4 µM (inactive); in [16], 21.8 µM (inactive); in assay [4], 21.8 µM (inactive); in assay [5], 15.6 µM (inactive); in [17], 91.6 µM (inactive). Besides, the GI50 in [18] was 45.2 µM (inactive); in [19], 57.7 µM (inactive); in assay [6], 21.7 µM (inactive); in assay [10] it was 16.1 µM (inactive); in assay [7] it was 37.3 µM (inactive); in assay [8] it was 66.8 µM (inactive). Also, the GI50 in assay [20] was 27.7 µM (inactive).
For `CC(=O)c1nccc2c1c(C)nc1ccccc12`, the GI50 in assay [11] was 30.3 µM (inactive); in [1], 25.8 µM (inactive); in assay [12], 39.7 µM (inactive); in assay [13], 43.4 µM (inactive); in assay [2] it was 71.3 µM (inactive); in assay [14], 85.1 µM (inactive). For the same compound, the GI50 in assay [3] is 30.3 µM (inactive); in assay [15], > 100 µM (inactive); in [16], > 100 µM (inactive); in assay [4], 38.7 µM (inactive); in [5], 38.5 µM (inactive); in assay [17], > 100 µM (inactive). In addition, the GI50 in assay [18] is 38.3 µM (inactive); in [19], 97.3 µM (inactive); in assay [6], 74.5 µM (inactive); in assay [10], 26.4 µM (inactive); in assay [7] it was > 100 µM (inactive); in assay [8], > 100 µM (inactive). Also, in assay [20], the GI50 was 53.6 µM (inactive).
As to `N#CN=C(N(Cc1ccccc1)Cc1ccccc1)N(Cc1ccccc1)Cc1ccccc1`, the GI50 was 4.36 µM (inactive) in assay [2]; 11.6 µM (inactive) in [3]; 11.9 µM (inactive) in assay [4]; 6.22 µM (inactive) in assay [6]; 21.8 µM (inactive) in assay [7]; 12.5 µM (inactive) in assay [9].
For `O=C1/C(=C/c2ccccc2)CCC/C1=C\c1ccccc1` [2,6-DIBENZYLIDENECYCLOHEXANONE], the GI50 in assay [11] is 8.2 µM (inactive); in assay [1], 17.5 µM (inactive); in assay [12] it was 1.74 µM (inactive); in assay [13] it was 6.4 µM (inactive); in [2] it was 3.58 µM (inactive); in assay [14], 5.89 µM (inactive). For the same compound, the GI50 is 23.4 µM (inactive) in [3]; 5.62 µM (inactive) in assay [15]; 8.77 µM (inactive) in [16]; 2.52 µM (inactive) in [4]; 17.8 µM (inactive) in assay [5]; 6.97 µM (inactive) in [17]. Moreover, the GI50 was 6.07 µM (inactive) in assay [18]; 5.81 µM (inactive) in assay [19]; 5.87 µM (inactive) in assay [6]; 9.71 µM (inactive) in [10]; 21.4 µM (inactive) in [7]; 17.8 µM (inactive) in assay [8]. Also, in assay [20], the GI50 is 2.79 µM (inactive).
Turning to `COC1=C(C(c2cc(OC)c(OC)c(OC)c2)c2cc3c(cc2OC)OCO3)C(=O)OC1` (stereo unspecified), the GI50 in assay [11] is 9.18 µM (inactive); in [1], 58.9 µM (inactive); in [12], 29 µM (inactive); in [13], > 100 µM (inactive); in assay [2], 15 µM (inactive); in [14], 15.7 µM (inactive). Further, the GI50 is > 48.5 µM (inactive) in [3]; 4.66 µM (inactive) in [15]; 5.69 µM (inactive) in assay [16]; 11.6 µM (inactive) in assay [4]; 11.7 µM (inactive) in [5]; 29.2 µM (inactive) in [17]. In addition, the GI50 is 28.6 µM (inactive) in assay [18]; 47.2 µM (inactive) in [19]; 20.5 µM (inactive) in assay [6]; 11.1 µM (inactive) in [10]; 41.2 µM (inactive) in [7]; > 44 µM (inactive) in assay [8]. Besides, in assay [20], the GI50 is 3.94 µM (inactive).
Regarding `CCOC(=O)C1S(=O)(=O)OCCOS1(=O)=O`, the GI50 in assay [1], in assay [2], in assay [3], in assay [4], in assay [6] and in assay [10] was > 100 µM (inactive) throughout. Also, the GI50 in [7], in [8] and in assay [9] was > 100 µM (inactive) throughout.
Take `COc1cc2c(cc1O)CC[C@@H]1C2CC[C@@]2(C)C1CC[C@@H]2O` (stereo partly specified): the GI50 in [11] was 1.14 µM (inactive); in assay [1] it was 10.7 µM (inactive); in assay [12] it was 1.6 µM (inactive); in assay [13], 4.66 µM (inactive); in [2], 0.312 µM (active); in assay [14], 6.24 µM (inactive). The GI50 in [3] was 13.5 µM (inactive); in [15], 0.105 µM (active); in assay [16], 0.458 µM (active); in assay [4], 4.43 µM (inactive); in [5], 6.24 µM (inactive); in assay [17], 2.46 µM (inactive). Further, the GI50 in assay [18] was 3.4 µM (inactive); in assay [19], 0.472 µM (active); in assay [6] it was 21 µM (inactive); in assay [10], 0.073 µM (active); in assay [7] it was 3.22 µM (inactive); in [8] it was 14 µM (inactive). Also, the GI50 in [20] is 0.103 µM (active).
Turning to `CCOC(=O)c1nc2ccccc2n(CC)c1=O`, the GI50 in [11], in [1], in assay [12], in assay [13], in [2] and in assay [14] was > 100 µM (inactive) throughout. Moreover, the GI50 in [3], in assay [15], in assay [16], in assay [4], in [5] and in assay [17] was > 100 µM (inactive) each time. For the same compound, the GI50 in assay [18], in [19], in assay [6], in assay [10], in assay [7] and in assay [8] was > 100 µM (inactive) each time. Also, the GI50 in [20] was > 100 µM (inactive).

(Values after ChEMBL document CHEMBL1201862, “PubChem BioAssay data set” (2004).)
